# From PubChem BioAssay (NCI)
#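 GI50 marks 50% less growth. TGI denotes the concentration required for complete inhibition of growth.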
# Experiments:
# Test in all cases: growth of human tumour cells (NCI), 384-well format
# [1] = tested on: RPMI-8226 leukemia
# [2] = tested on: A498 renal
# [3] = tested on: PC-3 prostate
# [4] = tested on: OVCAR-5 ovarian
# [5] = tested on: HCC-2998 colon
# [6] = tested on: MDA-MB-231 breast
# [7] = tested on: SF-268 CNS
# [8] = tested on: KM12 colon
# [9] = tested on: UACC-62 melanoma
# [10] = tested on: 786-0 renal
# [11] = tested on: OVCAR-3 ovarian
# [12] = tested on: K-562 leukemia
# [13] = tested on: NCI-H460 NSCLC
# [14] = tested on: NCI-H522 lung
# [15] = tested on: DU-145 prostate
# [16] = tested on: SF-295 CNS
# [17] = tested on: UO-31 renal
# [18] = tested on: SNB-19 CNS
# [19] = tested on: HCT-116 colon
# [20] = tested on: LOX IMVI melanoma
# [21] = tested on: M14 melanoma
# [22] = tested on: NCI/ADR-RES ovarian
# [23] = tested on: A549 NSCLC
# [24] = tested on: ACHN renal
# [25] = tested on: SW-620 colon
# [26] = tested on: CAKI-1 renal
# [27] = tested on: MCF7 breast
# [28] = tested on: MDA-MB-435 melanoma
# [29] = tested on: IGROV1 ovarian
# [30] = tested on: UACC-257 melanoma
# [31] = tested on: SK-MEL-2 melanoma
# [32] = tested on: HCT-15 colon
# [33] = tested on: SK-OV-3 ovarian
# [34] = tested on: OVCAR-8 ovarian
# [35] = tested on: MOLT-4 leukemia
# [36] = tested on: HL-60(TB) leukemia
# [37] = tested on: SK-MEL-5 melanoma
# [38] = tested on: BT-549 breast
# [39] = tested on: NCI-H226 lung
# [40] = tested on: TK-10 renal
# [41] = tested on: OVCAR-4 ovarian
# [42] = tested on: T-47D breast
# [43] = tested on: MDA-MB-468 breast
# [44] = tested on: HT29 colon
# [45] = tested on: SF-539 CNS
# [46] = tested on: COLO 205 colon
# [47] = tested on: NCI-H322M lung
# [48] = tested on: U251 glioblastoma
# [49] = tested on: HOP-92 NSCLC
# [50] = tested on: HOP-62 NSCLC
# [51] = tested on: SK-MEL-28 melanoma
# [52] = tested on: SN12C renal
# [53] = tested on: NCI-H23 lung
# [54] = tested on: MALME-3M melanoma
# [55] = tested on: RXF 393 renal
# [56] = tested on: CCRF-CEM leukemia
# [57] = tested on: SR leukemia
smiles,measurement,setting,value
COCCNCc1ccc(-c2cc3nccc(Oc4ccc(NC(=O)C5(C(=O)Nc6ccc(F)cc6)CC5)cc4F)c3s2)nc1,GI50,[1],499 nM
same,TGI,[1],1560 nM
same,GI50,[2],1410 nM
same,TGI,[2],2720 nM
same,GI50,[3],1690 nM
same,TGI,[3],3090 nM
same,GI50,[4],1630 nM
same,TGI,[4],3100 nM
same,GI50,[5],1480 nM
same,TGI,[5],2810 nM
same,GI50,[6],1320 nM
same,TGI,[6],2600 nM
same,GI50,[7],1570 nM
same,TGI,[7],2930 nM
same,GI50,[8],30.9 nM
same,TGI,[8],1080 nM
same,GI50,[9],1240 nM
same,TGI,[9],2510 nM
same,GI50,[10],1550 nM
same,TGI,[10],2890 nM
same,GI50,[11],1590 nM
same,TGI,[11],2960 nM
same,GI50,[12],101 nM
same,TGI,[12],219 nM
same,GI50,[13],1450 nM
same,TGI,[13],2790 nM
same,GI50,[14],1280 nM
same,TGI,[14],2540 nM
same,GI50,[15],1750 nM
same,TGI,[15],3140 nM
same,GI50,[16],396 nM
same,TGI,[16],1950 nM
same,GI50,[17],1380 nM
same,TGI,[17],2700 nM
same,GI50,[18],1900 nM
same,TGI,[18],3330 nM
same,GI50,[19],1100 nM
same,TGI,[19],2310 nM
same,GI50,[20],2260 nM
same,TGI,[20],3730 nM
same,GI50,[21],1370 nM
same,TGI,[21],2670 nM
same,GI50,[22],1560 nM
same,TGI,[22],2950 nM
same,GI50,[23],1280 nM
same,TGI,[23],2560 nM
same,GI50,[24],682 nM
same,TGI,[24],1960 nM
same,GI50,[25],1260 nM
same,TGI,[25],2530 nM
same,GI50,[26],1250 nM
same,TGI,[26],2560 nM
same,GI50,[27],1150 nM
same,TGI,[27],2370 nM
same,GI50,[28],1370 nM
same,TGI,[28],2680 nM
same,GI50,[29],1360 nM
same,TGI,[29],2670 nM
same,GI50,[30],186 nM
same,TGI,[30],396 nM
same,GI50,[31],1410 nM
same,TGI,[31],2710 nM
same,GI50,[32],1280 nM
same,TGI,[32],2550 nM
same,GI50,[33],1180 nM
same,TGI,[33],2420 nM
same,GI50,[34],1570 nM
same,TGI,[34],2920 nM
same,GI50,[35],477 nM
same,TGI,[35],1630 nM
same,GI50,[36],1480 nM
same,TGI,[36],2800 nM
same,GI50,[37],1130 nM
same,TGI,[37],2350 nM
same,GI50,[38],1620 nM
same,TGI,[38],2980 nM
same,GI50,[39],1580 nM
same,TGI,[39],2960 nM
same,GI50,[40],1690 nM
same,TGI,[40],3110 nM
same,GI50,[41],1360 nM
same,TGI,[41],2660 nM
same,GI50,[42],1160 nM
same,TGI,[42],2390 nM
same,GI50,[43],1940 nM
same,TGI,[43],3360 nM
same,GI50,[44],574 nM
same,TGI,[44],1840 nM
same,GI50,[45],466 nM
same,TGI,[45],1910 nM
same,GI50,[46],1140 nM
same,TGI,[46],2370 nM
same,GI50,[47],1400 nM
same,TGI,[47],2720 nM
same,GI50,[48],1450 nM
same,TGI,[48],2780 nM
same,GI50,[49],166 nM
same,TGI,[49],1050 nM
same,GI50,[50],1810 nM
same,TGI,[50],3210 nM
same,GI50,[51],1430 nM
same,TGI,[51],2750 nM
same,GI50,[52],346 nM
same,TGI,[52],1670 nM
same,GI50,[53],414 nM
same,TGI,[53],1960 nM
same,GI50,[54],1030 nM
same,TGI,[54],2200 nM
same,GI50,[55],768 nM
same,TGI,[55],2050 nM
same,GI50,[56],1420 nM
same,TGI,[56],2730 nM
same,GI50,[57],1130 nM
same,TGI,[57],2340 nM
